Experimental findings from patent US12540197B2, “Anti-tissue factor antibodies and antibody conjugates, compositions comprising anti-tissue factor antibodies or antibody conjugates, and methods of making and using anti-tissue factor antibodies and antibody conjugates” (SUTRO BIOPHARMA, INC., priority 2023, dated 2026) are described below.

The assay concerns BxPC3 cells. Put plainly: Secondary ADC cell killing assay (antibody + anti-human Fc nanobody conjugated to SC236) on BxPC3. Type of assay: cell-based. Particulars: Table 15, scFv-Fc from SRP2842; nanobody-SC236 20 nM, 120 hrs. As to the method:
The internalization ability of the lead antibodies was evaluated by an ADC cell killing assay on Tissue Factor positive BxPC3 cells. A total of 625 cells in a volume of 25 μL were seeded in each well of a 384-well flat bottom white polystyrene plate. Lead antibodies were formulated at 4-fold starting concentration in the cell culture medium and filtered through MultiScreenHTS 96-Well Filter Plates (Millipore; Billerica, Massachusetts). 12.5 μL of antibody was added into each treatment well, and 12.5 μL of anti-human Fc nanobody conjugated to SC236 was then added into each well at a fixed final concentration of 20 nM. Assay plates were cultured at 37° C. in a CO2 incubator for 120 hrs before assay. For cell viability measurement, 30 μL of Cell Titer-Glo® reagent (Promega Corp. Madison, WI) was added into each well, and plates were processed as per product instructions. Relative luminescence was measured on an ENVISION® plate reader (Perkin-Elmer; Waltham, MA). Relative luminescence readings were converted to percent viability using untreated cells as controls. Data was fitted with non-linear regression analysis, using a log (inhibitor) vs. response-variable slope, 4 parameter fit with GraphPad Prism (GraphPad v 5.0, Software; San Diego, California).

What is called EC50 is the concentration that produces a half-maximal response. With Tisotumab, the “BxPC3 Cell Killing Span (%)” value came out at 94.7% and the half-maximal effective concentration (EC50) worked out at 0.023 nM.
